Laboratory results as given in PMC6669322, “Small Molecule Binding to Alzheimer Risk Factor CD33 Promotes Aβ Phagocytosis” (iScience, 2019).

Tested on: differentiated THP-1 cells
Test: THP-1 phagocytosis assay (pHrodo E. coli BioParticles), wild-type cells
Type: cell-based, human
Settings: 30 min pre-treatment, in words
Excerpt: Having shown that P22 binds specifically to the sialic acid-binding site of this domain we now have a chemical tool to answer the question of whether the sialic acid-binding site is the appropriate target for small molecule ligands that might promote Aβ uptake. Siglecs preferentially recognize multivalent presentation of their ligands ([Rillahan et al., 2014], [Büll et al., 2016]), and for this reason we conjugated the biotinylated form of P22 to microparticles labeled with both FITC and streptavidin (P22 microparticles) (see Transparent Methods). More than 60% CD33-transfected BV2 cells were positive for P22 microparticles compared with only 30% cells that were only incubated with control particles (unconjugated to P22) (Figure 4A). […]
Figure 4 Effect of P22 on Phagocytosis The cells were treated with P22 conjugated to microparticles labeled with both streptavidin and fluorescein isothiocyanate (FITC), or with microparticles without P22 conjugated as control. […] (C) Quantification of phagocytic differentiated human THP-1 cells after incubation with P22 monomer, P22 conjugated microparticles, or microparticles without P22 conjugation. […]
THP-1 cells (control and CD33KO) were differentiated in growth media (RPMI 1640, 10% FCS) supplemented with 100 ng/mL PMA for 3 days. […] Differentiated cells were then lifted, counted and 75,000 cells/well were plated in a 96 well plate. […]

In the case of `Cc1cc(C(=O)NC[C@@H](O)[C@@H](O)[C@@H]2O[C@@](OC[C@H]3O[C@@H](O[C@H]4[C@H](O)[C@@H](O)[C@H](OCCN)O[C@@H]4CO)[C@H](O)[C@@H](O)[C@H]3O)(C(=O)O)C[C@H](O)[C@H]2NC(=O)Cn2cc(C3CCCCC3)nn2)cc(C)c1O` [P22, β-D-Glucopyranoside, 2-aminoethyl O-[N-[2-(4-cyclohexyl-1H-1,2,3-triazol-1-yl)acetyl]-9-deoxy-9-[(4-hydroxy-3,5-dimethylbenzoyl)amino]-α-neuraminosyl] (2→6)-O-β-D-galactopyranosyl-(1→4)-], the “effect on phagocytosis of E. coli BioParticles” value is reported as “no effect”.
